Ki data for 17 molecules are collected here from patent publication US9115117B2, “Substituted piperidine compounds and their use as orexin receptor modulators” (JANSSEN PHARMACEUTICA NV, priority 2013, dated 2015).

Where a name gives a salt, the structure may show the parent alone.

Assay [1] concerns the target human orexin 2 receptor (Homo sapiens (Human), UniProt O43614). Description: Human orexin 2 receptor radioligand binding ([3H]-EMPA). The settings on record: HEK293 stably expressing human orexin 2 receptor; [3H]-EMPA; apparent Ki; read-out: hOX2 Ki. The method, boiled down: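 Competition binding with 2 nM final [3H]-EMPA in PBS against homogenized whole-cell suspension; DMSO ≤0.1%. Nonspecific binding defined with […] almorexant. Plates washed with PBS, dried, and bound radioactivity counted by scintillation.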

Assay [2] deals with rat orexin 1 receptor (Rattus norvegicus, UniProt P56718). Description: Rat orexin 1 receptor radioligand binding. As to conditions: HEK293 cells stably expressing rat orexin 1 receptor; apparent Ki; read-out: rOX1 Ki. The method, boiled down: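 Homogenized cell suspensions competed against 4 nM final of a tritiated oxadiazolyl-pyrrolidinyl thiazole methanone radioligand (35.3 Ci/mmol) in PBS, with DMSO ≤0.1%. Nonspecific binding defined with 10 μM almorexant; after washing and drying, bound radioactivity counted by scintillation.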

Assay [3] addresses human orexin 1 receptor (Homo sapiens, UniProt O43613). Description: Human orexin 1 receptor radioligand binding. As to conditions: CHO cells stably expressing human orexin 1 receptor; apparent Ki; read-out: hOX1 Ki. The method, then:
The in vitro affinity of the compounds of the invention for the rat/human orexin 1 and human orexin 2 receptors was determined by competitive radioligand binding using [^3H](1-(5-(2-fluoro-phenyl)-2-methyl-thiazol-4-yl)-1-((S)-2-(5-phenyl-(1,3,4)oxadiazol-2-ylmethyl)-pyrrolidin-1-yl)-methanone)(Langmead et al., 2004) and [^3H]EMPA (n-ethyl-2[96-methoxy-pyridin-3-yl)-(toluene-2-sulfonyl)-amino]-N-pyridin-3-ylmethyl acetamide), respectively (Langmead et al., 2004, British Journal of Pharmacology 141:340-346; Malherbe et al., 2004, British Journal of Pharmacology 156:1326-41).
Human Embryonic Kidney 293 cells (HEK293) stably expressing rat orexin 1 receptor (Genebank accession number NM_001525) or Chinese ovary cells (CHO) stably expressing human orexin 1 receptor (Genebank accession number NM_001526) were grown to confluency in DMEM (Hyclone, cat #SH30022), 10% FBS, 1× Pen/Strep, 1× sodium pyruvate, 10 mM HEPES, 600 µg/mL G418 and DMEM/F12 (Gibco, Cat #11039), 10% FBS, 1× Pen/Strep, 600 µg/mL G418 media, respectively on 150 cm^2 tissue culture plates, washed with 5 mM EDTA in PBS (HyClone Dulbecco's Phoshpate Buffered Saline 1× with Calcium and Magnesium, Cat #SH30264.01, hereafter referred to simply as PBS) and scraped into 50 ml tubes. After centrifugation (2K×G, 5 min at 4° C.), the supernatant was aspirated and the pellets frozen and stored at −80° C. Cells were resuspended in PBS in the presence of 1 tablet of protease inhibitor cocktail (Roche, Cat. #11836145001) per 50 mL. Each cell pellet from a 15 cm plate was resuspended in 10 mL, stored on ice, and homogenized for 45 sec prior to addition to the reactions. Competition binding experiments in 96 well polypropylene plates were performed using [^3H]-(1-(5-(2-fluoro-phenyl)-2-methyl-thiazol-4-yl)-1-((S)-2-(5-phenyl-(1,3,4)oxadiazol-2-ylmethyl)-pyrrolidin-1-yl)-methanone) (Moraveck Corporation, specific activity=35.3 Ci/mmol), diluted to a 10 nM concentration in PBS (4 nM final). […] The final concentration of DMSO in the reactions is equal to or less than 0.1%. Total and nonspecific binding was determined in the absence and presence of 10 μM almorexant. The total volume of each reaction is 200 μL (20 μL of diluted compounds, 80 μL of [3H]-(1-(5-(2-fluoro-phenyl)-2-methyl-thiazol-4-yl)-1-((S)-2-(5-phenyl-(1,3,4)oxadiazol-2-ylmethyl)-pyrrolidin-1-yl)-methanone) diluted in PBS and 100 μL of the cell suspension). Reactions were run for 60 min at room temperature and terminated by filtration through GF/C filter plates (PerkinElmer, Cat. #6005174) presoaked in 0.3% polyethylenimine using the cell harvester (PerkinElmer Filtermate). The plates were washed 3 times by aspirating 30 ml PBS through the plates. Plates were dried in 55° C. oven for 60 min, scintillation fluid was added, and the radioactivity was counted on a Topcount (Packard).

Chain of human orexin 2 receptor (O43614 whole entry): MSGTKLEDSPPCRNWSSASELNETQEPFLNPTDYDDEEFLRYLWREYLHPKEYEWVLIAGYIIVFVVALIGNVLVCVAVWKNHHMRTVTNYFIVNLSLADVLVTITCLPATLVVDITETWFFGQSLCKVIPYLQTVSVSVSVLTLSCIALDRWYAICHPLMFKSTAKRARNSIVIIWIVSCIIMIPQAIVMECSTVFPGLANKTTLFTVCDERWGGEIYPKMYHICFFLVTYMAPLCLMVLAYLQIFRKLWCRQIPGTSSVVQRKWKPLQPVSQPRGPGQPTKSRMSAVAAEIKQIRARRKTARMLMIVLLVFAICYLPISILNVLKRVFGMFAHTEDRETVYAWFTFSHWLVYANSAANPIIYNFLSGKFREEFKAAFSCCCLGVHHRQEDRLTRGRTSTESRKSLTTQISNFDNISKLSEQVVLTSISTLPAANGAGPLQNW

Turning to `Cc1cnc(C(=O)N2CCC[C@@H](Nc3ccc(C(F)(F)F)cn3)[C@@H]2C)c(-n2nccn2)c1` [Example 26, ((2S,3R)-2-methyl-3-((5-(trifluoromethyl)pyridin-2-yl)amino)piperidin-1-yl)(5-methyl-3-(2H-1,2,3-triazol-2-yl)pyridin-2-yl)methanone], the Ki in assay [1] was 2040 nM; in assay [2] it was 11 nM; in assay [3] it was 14 nM.
As to `COc1ccc(-n2nccn2)c(C(=O)N2CCC[C@@H](Nc3ncc(C(F)(F)F)cn3)[C@@H]2C)c1` [Example 89, (5-methoxy-2-(2H-1,2,3-triazol-2-yl)phenyl)((2S,3R)-2-methyl-3-((5-(trifluoromethyl)pyrimidin-2-yl)amino)piperidin-1-yl)methanone], the Ki was 371 nM in assay [1], 14 nM in assay [2] and 10 nM in assay [3].
The corresponding values for `Cc1ccc(C(=O)N2CCC[C@@H](Nc3ncc(C(F)(F)F)cn3)[C@@H]2C)c(-n2ccnn2)n1` [Example 70, (6-methyl-2-(1H-1,2,3-triazol-1-yl)pyridin-3-yl)((2S,3R)-2-methyl-3-((5-(trifluoromethyl)pyrimidin-2-yl)amino)piperidin-1-yl)methanone] are 7500 nM, 170 nM and 165 nM.
Consider `Cc1cnc(C(=O)N2CCC[C@@H](Nc3ccc(Br)cn3)[C@@H]2C)c(-c2ncco2)c1` [Example 80, ((2S,3R)-3-((5-bromopyridin-2-yl)amino)-2-methylpiperidin-1-yl)(5-methyl-3-(oxazol-2-yl)pyridin-2-yl)methanone], for which the Ki in assay [1] was 4900 nM; in assay [2], 29 nM; in assay [3], 24 nM.
Turning to `Cc1ccc(C(=O)N2CCC[C@@H](Nc3nc4ccccc4o3)[C@@H]2C)c(-n2nccn2)n1` [Example 75, ((2S,3R)-3-(benzo[d]oxazol-2-ylamino)-2-methylpiperidin-1-yl)(6-methyl-2-(2H-1,2,3-triazol-2-yl)pyridin-3-yl)methanone], the Ki stood at 9500 nM in assay [1], 23 nM in assay [2] and 40 nM in assay [3].
For `COc1ccc(C(=O)N2CCC[C@@H](Nc3ccc(C(F)(F)F)cn3)[C@@H]2C)c(-n2nccn2)c1` [Example 97, (4-methoxy-2-(2H-1,2,3-triazol-2-yl)phenyl)((2S,3R)-2-methyl-3-((5-(trifluoromethyl)pyridin-2-yl)amino)piperidin-1-yl)methanone], the Ki in assay [1] came to 6100 nM; in assay [2], 44 nM; in assay [3], 32 nM.
Take `Cc1cnc(C(=O)N2CCC[C@@H](Nc3cnc(C(F)(F)F)cn3)[C@@H]2C)c(-c2ncco2)c1` [Example 83, ((2S,3R)-2-methyl-3-((5-(trifluoromethyl)pyrazin-2-yl)amino)piperidin-1-yl)(5-methyl-3-(oxazol-2-yl)pyridin-2-yl)methanone]: the Ki in assay [1] was 7000 nM; in assay [2] it was 57 nM; in assay [3], 53 nM.
On the same counts, the results for `Cc1ccc(-n2nccn2)c(C(=O)N2CCC[C@@H](Oc3ncc(C(F)(F)F)cn3)[C@@H]2C)n1` [Example 104, ((2S,3R)-2-methyl-3-((5-(trifluoromethyl)pyrimidin-2-yl)oxy)piperidin-1-yl)(6-methyl-3-(2H-1,2,3-triazol-2-yl)pyridin-2-yl)methanone] are above 10000 nM, 119 nM and 173 nM.
Consider `Cc1cccc(C(=O)N2CCC[C@@H](Nc3ccc(C(F)(F)F)cn3)[C@@H]2C)c1-n1nccn1` (racemic) [Example 20, (±)-trans-(3-methyl-2-(2H-1,2,3-triazol-2-yl)phenyl)(2-methyl-3-((5-(trifluoromethyl)pyridin-2-yl)amino)piperidin-1-yl)methanone], for which the Ki in assay [1] is 150 nM; in assay [2], 14 nM; in assay [3], 8 nM.
As to `C[C@H]1[C@H](Nc2cnc(C(F)(F)F)cn2)CCCN1C(=O)c1ccccc1-n1nccn1` (racemic) [Example 38, (±)-trans-(2-(2H-1,2,3-triazol-2-yl)phenyl)(2-methyl-3-((5-(trifluoromethyl)pyrazin-2-yl)amino)piperidin-1-yl)methanone], the results for the Ki in assay [1], in assay [2] and in assay [3] were 529 nM, 18 nM and 25 nM, respectively.
Regarding `Cc1ccc(C(=O)N2CCC[C@@H](Nc3ncc(C(F)(F)F)cn3)[C@@H]2C)c(-n2nccn2)n1` [Example 69, (6-methyl-2-(2H-1,2,3-triazol-2-yl)pyridin-3-yl)((2S,3R)-2-methyl-3-((5-(trifluoromethyl)pyrimidin-2-yl)amino)piperidin-1-yl)methanone], the Ki in assay [1] was above 10000 nM; in assay [2], 70 nM; in assay [3], 112 nM.
On to `Cc1ccc(-c2ncco2)c(C(=O)N2CCC[C@@H](Nc3ccc(C(F)(F)F)cn3)[C@@H]2C)n1` [Example 25, ((2S,3R)-2-methyl-3-((5-(trifluoromethyl)pyridin-2-yl)amino)piperidin-1-yl)(6-methyl-3-(oxazol-2-yl)pyridin-2-yl)methanone hydrochloride], for which the Ki in assay [1] was 190 nM; in assay [2], 11 nM; in assay [3], 19 nM.
On the same counts, the results for `CCOc1ccccc1C(=O)N1CCC[C@@H](Nc2ccc(Br)cn2)[C@@H]1C` (racemic) [Example 44, (±)-trans-(3-(5-bromopyridin-2-yl)amino)-2-methylpiperidin-1-yl)(2-ethoxyphenyl)methanone] are 1600 nM, 82 nM and 72 nM.
Turning to `Cc1ccc(C(=O)N2CCC[C@@H](Oc3ccc(C(F)(F)F)cn3)[C@@H]2C)c(-n2nccn2)c1` [Example 112, (4-methyl-2-(2H-1,2,3-triazol-2-yl)phenyl)((2S,3R)-2-methyl-3-((5-(trifluoromethyl)pyridin-2-yl)oxy)piperidin-1-yl)methanone], the Ki in assay [1] stood at 562 nM; in assay [2] it was 8 nM; in assay [3], 12 nM.
In the case of `COc1ccc(C(=O)N2CCC[C@@H](Nc3ncc(C(F)(F)F)cn3)[C@@H]2C)c(-n2nccn2)c1` [Example 95, (4-methoxy-2-(2H-1,2,3-triazol-2-yl)phenyl)((2S,3R)-2-methyl-3-((5-(trifluoromethyl)pyrimidin-2-yl)amino)piperidin-1-yl)methanone], the Ki is above 10000 nM in assay [1], 81 nM in assay [2] and 103 nM in assay [3].
On the same counts, the results for `COc1ccc(-n2nccn2)c(C(=O)N2CCC[C@@H](Nc3ccc(C(F)(F)F)cn3)[C@@H]2C)c1` (racemic) [Example 19, (±)-trans-(5-methoxy-2-(2H-1,2,3-triazol-2-yl)phenyl)(2-methyl-3-((5-(trifluoromethyl)pyridin-2-yl)amino)piperidin-1-yl)methanone] are 238 nM, 10 nM and 10 nM.
The corresponding values for `Cc1ccc(C(=O)N2CCC[C@@H](Nc3ccc(C(F)(F)F)cn3)[C@@H]2C)c(-n2nccn2)c1` (racemic) [Example 13, (±)-trans-(4-methyl-2-(2H-1,2,3-triazol-2-yl)phenyl)(2-methyl-3-((5-(trifluoromethyl)pyridin-2-yl)amino)piperidin-1-yl)methanone] are 920 nM, 15 nM and 9 nM.
